This passage reports IC50 results from patent US11299478B2, “2-cyanopyrimidin-4-yl carbamate or urea derivative or salt thereof, and pharmaceutical composition including same” (HANLIM PHARMACEUTICAL CO., LTD., priority 2018, dated 2022).

Format in all cases: biochemical
The target in one test is cathepsin L (Homo sapiens, UniProt P07711). As to the kind of experiment: Inhibitory activity assay against cathepsin L (enzyme assay). The note with it: Z-Phe-Arg-AMC 2 μM, enzyme 3 nM, pH 5.5, 30 minutes. The essentials:
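IC50s came from 4-parameter logistic fits of ten concentrations (10.0 μM down to 0.000508 μM). Reaction: 30 min, 3 nM enzyme, 2 μM Z-Phe-Arg-AMC, pH 5.5 MES buffer containing DTT, EDTA, Polysorbate 20 and 10% DMSO; fluorescence read 340/460 nm.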

In the next test the target is cathepsin S (Homo sapiens, UniProt P25774). The test is described as follows: Inhibitory activity assay against cathepsin S (enzyme assay). The note with it: Z-Phe-Arg-AMC 70 μM, enzyme 3 nM, pH 6.5, 45 minutes. The method, boiled down:
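Ten-point compound titration (10.0 to 0.000508 μM final) reacted 45 min with 3 nM cathepsin S and 70 μM Z-Phe-Arg-AMC in MES 50 mM pH 6.5, DTT 2.5 mM, EDTA 1.0 mM, BSA 0.001%, DMSO 10%. AMC release read at 340/460 nm; IC50 from four-parameter logistic fit.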

The next test addresses T1, cathepsin K (Homo sapiens, UniProt P43235).
T1 sequence (P43235 115-329): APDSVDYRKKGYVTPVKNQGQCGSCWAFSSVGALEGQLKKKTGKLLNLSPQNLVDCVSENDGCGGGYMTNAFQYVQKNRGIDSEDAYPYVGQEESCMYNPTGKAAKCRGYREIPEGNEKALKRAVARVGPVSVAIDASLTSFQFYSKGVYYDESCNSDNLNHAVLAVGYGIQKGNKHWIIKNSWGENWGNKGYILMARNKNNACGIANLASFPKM
As to the kind of experiment: Inhibitory activity assay against cathepsin K (enzyme assay). Particulars: Z-Phe-Arg-AMC 10 μM, enzyme 1 nM, pH 5.5, 30 minutes. The essentials:
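IC50 by 4-parameter logistic fit of fluorescence (ex 355 nm, em 460 nm) after 30 min reaction. Compound tested at 10 final concentrations from 10.0 μM down to 0.000508 μM against 1 nM enzyme and 10 μM Z-Phe-Arg-AMC, in MES buffer pH 5.5 with DTT, EDTA, Triton X-100 and 10% DMSO.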

The target of a further test is cathepsin B (Homo sapiens, UniProt P07858). As to the kind of experiment: Inhibitory activity assay against cathepsin B (enzyme assay). Particulars: Z-Arg-Arg-AMC 40 μM, enzyme 1 nM, pH 6.0, 90 minutes. The method, boiled down:
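Reaction run 90 min in MES buffer pH 6.0 containing DTT, EDTA, Polysorbate 20 and 10% DMSO, using 40 μM fluorogenic Z-Arg-Arg-AMC and 1 nM cathepsin B. Ten compound levels from 10.0 μM; AMC fluorescence at ex 340/em 460 nm fitted to a 4-parameter logistic for IC50.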

Where only a bound is given, the exact number is not on record here.

cathepsin S, sequence (P25774 115-331, species assumed): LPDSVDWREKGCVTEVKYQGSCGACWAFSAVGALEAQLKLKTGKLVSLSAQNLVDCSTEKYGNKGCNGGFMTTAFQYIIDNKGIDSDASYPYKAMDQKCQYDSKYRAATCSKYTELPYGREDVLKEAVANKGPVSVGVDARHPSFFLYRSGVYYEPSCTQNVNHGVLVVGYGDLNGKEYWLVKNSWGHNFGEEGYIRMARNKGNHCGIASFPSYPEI
cathepsin L, sequence (P07711 114-333, species assumed): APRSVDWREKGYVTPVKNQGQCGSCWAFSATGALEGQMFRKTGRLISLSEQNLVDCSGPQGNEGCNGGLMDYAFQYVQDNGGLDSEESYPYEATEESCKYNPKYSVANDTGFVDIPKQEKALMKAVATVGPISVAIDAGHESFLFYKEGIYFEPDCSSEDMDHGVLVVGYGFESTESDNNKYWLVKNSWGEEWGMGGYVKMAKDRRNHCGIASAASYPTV

As for `N#Cc1nccc(C2(NC(=O)Nc3ccc(F)c(C(F)(F)F)c3)CCOCC2)n1` [Example 85, 1-(4-(2-cyanopyrimidin-4-yl)tetrahydro-2H-pyran-4-yl)-3-(4-fluoro-3-(trifluoromethyl)phenyl)urea], the IC50 on cathepsin L is over 10000 nM; against cathepsin S, over 10000 nM; at cathepsin K, 28.2 nM; at cathepsin B, over 10000 nM.

Turning to `N#Cc1nccc(C2(NC(=O)Nc3ccccc3)CCCCC2)n1` [Example 86, 1-(1-(2-cyanopyrimidin-4-yl)cyclohexyl)-3-phenylurea], the 50% inhibitory concentration (IC50) at cathepsin L was 2460 nM; against cathepsin S, 7110 nM; at cathepsin K it was 38.9 nM; against cathepsin B, over 10000 nM.

As to `Cc1ccc(C)c(NC(=O)NC2(c3ccnc(C#N)n3)CCCCC2)c1` [Example 87, 1-(1-(2-cyanopyrimidin-4-yl)cyclohexyl)-3-(2,5-dimethylphenyl)urea], the IC50 on cathepsin L was 898 nM; at cathepsin S, 6260 nM; on cathepsin K, 3.6 nM; at cathepsin B it was over 10000 nM.

On to `N#Cc1nccc(C2(NC(=O)NCc3ccccc3)CCCCC2)n1` [Example 88, 1-benzyl-3-(1-(2-cyanopyrimidin-4-yl)cyclohexyl)urea], for which the IC50 is 7140 nM at cathepsin L, over 10000 nM on cathepsin S, 31.6 nM at cathepsin K and over 10000 nM against cathepsin B.

In the case of `N#Cc1nccc(C2(NC(=O)Nc3cccc(C(F)(F)F)c3)CCCCC2)n1` [Example 89, 1-(1-(2-cyanopyrimidin-4-yl)cyclohexyl)-3-(3-(trifluoromethyl)phenyl)urea], the IC50 at cathepsin L was 6890 nM; against cathepsin S it was over 10000 nM; on cathepsin K it was 3.8 nM; against cathepsin B, over 10000 nM.

On to `N#Cc1nccc(C2(NC(=O)Nc3ccc(C(F)(F)F)cc3)CCCCC2)n1` [Example 90, 1-(1-(2-cyanopyrimidin-4-yl)cyclohexyl)-3-(4-(trifluoromethyl)phenyl)urea], for which the IC50 at cathepsin L was over 10000 nM; against cathepsin S, over 10000 nM; on cathepsin K, 68.2 nM; at cathepsin B, over 10000 nM.

On to `N#Cc1nccc(C2(NC(=O)NCc3ccccc3C(F)(F)F)CCCCC2)n1` [Example 91, 1-(1-(2-cyanopyrimidin-4-yl)cyclohexyl)-3-(2-(trifluoromethyl)benzyl)urea], for which the IC50 was 4770 nM against cathepsin L, over 10000 nM against cathepsin S, 32.2 nM at cathepsin K and over 10000 nM against cathepsin B.

Turning to `N#Cc1nccc(C2(NC(=O)Nc3ccccc3C(F)(F)F)CCCCC2)n1` [Example 92, 1-(1-(2-cyanopyrimidin-4-yl)cyclohexyl)-3-(2-(trifluoromethyl)phenyl)urea], the half-maximal inhibitory concentration (IC50) was over 10000 nM against cathepsin L, over 10000 nM at cathepsin S, 40.9 nM on cathepsin K and over 10000 nM against cathepsin B.

On to `N#Cc1nccc(C2(NC(=O)Nc3ccc(Cl)c(C(F)(F)F)c3)CCCCC2)n1` [Example 93, 1-(4-chloro-3-(trifluoromethyl)phenyl)-3-(1-(2-cyanopyrimidin-4-yl)cyclohexyl)urea], for which the IC50 is over 10000 nM at cathepsin L, over 10000 nM against cathepsin S, 23.9 nM on cathepsin K and over 10000 nM against cathepsin B.

As to `Cc1ccc(F)c(NC(=O)NC2(c3ccnc(C#N)n3)CCCCC2)c1` [Example 94, 1-(1-(2-cyanopyrimidin-4-yl)cyclohexyl)-3-(2-fluoro-5-methylphenyl)urea], the IC50 against cathepsin L was 1130 nM; against cathepsin S it was 8240 nM; on cathepsin K it was 9 nM; on cathepsin B, over 10000 nM.

As to `N#Cc1nccc(C2(NC(=O)Nc3cc(C(F)(F)F)cc(C(F)(F)F)c3)CCCCC2)n1` [Example 95, 1-(3,5-bis(trifluoromethyl)phenyl)-3-(1-(2-cyanopyrimidin-4-yl)cyclohexyl)urea], the IC50 on cathepsin L was over 10000 nM; against cathepsin S, over 10000 nM; at cathepsin K it was 18.3 nM; at cathepsin B, over 10000 nM.

Usually IC50 stands for the concentration at which inhibition is half-maximal.
